Measured values from patent US20250304535A1, “KAT6 Inhibitors” (BeiGene Switzerland GmbH, priority 2024, published 2025).

Experiments:
[1] = molecular target: Recombinant human KAT6B protein (657-1069) (Homo sapiens (Human), UniProt Q8WYB5); assay: KAT6B biochemical TR-FRET assay; conditions: histone H4 peptide 1000 nM, AcCoA 100 nM, enzyme 5 nM
Method: Enzymatic reactions of KAT6A and KAT6B were performed using Fluorescence Resonance Energy Transfer (TR-FRET) assay, which measures acetylation of a synthetic, biotinylated histone-H4 peptide by the KAT6A and KAT6B enzymes. Recombinant human KAT6A protein (497-780) were expressed in BL21 cell using an E. coli expression system. Recombinant human KAT6B protein (657-1069) was expressed in sf9 cell using a baculovirus expression system. Histone H4 peptide (SEQ ID NO: 1—[…]-GGK-Biotin), which was used as substrate, was synthesized by GL Biochem, Shanghai, China. Acetyl coenzyme A was purchased from Sigma-Aldrich (#A-2056).
(§1) Testing for the inhibition activities of various compounds disclosed herein was carried out at room temperature in assay buffer containing 100 mM Tris/HCl Ph7.8, 15 mM NaCl, 0.01% chicken egg white albumin, 1 mM DTT and 0.01% Tween-20. Compounds in DMSO were dispensed into wells of a black, 384-well plate (Corning 4514) using ECHO555 (Beckman). The final concentration ranges of the test compounds were 0.0625-1,000 nM, 0.625-10,000 nM, or 0.313-5,000 nM. Five μL of KAT6A or KAT6B enzyme solution were added to wells, and the plate was incubated for 1 hour at room temperature (rt). After incubation for 1 hour at rt, 5 μL H4 and AcCoA substrate solutions were added to the wells to initiate reaction, and the plate was incubated. After 2 hours reaction, 5 μL detection reagent were added to the wells, and the plate was incubated for 2 hours. After two hours incubation, detection reagent containing 5 nM Anti-histone H4 antibody (ABCAM #ab177790), 100 μM formic acid (sigma #06473-100ML), 0.1 test/μL streptavidin-XL665 (PerkinElmer #610SAXLG), 0.05 test/μL PAb anti-rabbit IgG-Eu (PerkinElmer μ61PARKLA) was added to the wells. TR-FRET was measured on a microplate reader (PHERAstar FSX, BMG labtech). The IC50s were calculated based on inhibition of enzyme activity in the presence of increasing concentrations of test compounds, and the results are shown in Table 6. In Table 6, I≤5 nM, 5 nM<II≤50 nM.

[2] = molecular target: Recombinant human KAT6A protein (497-780) (Homo sapiens (Human), UniProt Q92794); assay: KAT6A biochemical TR-FRET assay; conditions: histone H4 peptide 2000 nM, AcCoA 300 nM, enzyme 5 nM
Chain of Recombinant human KAT6A protein (497-780) (Q92794 497-780): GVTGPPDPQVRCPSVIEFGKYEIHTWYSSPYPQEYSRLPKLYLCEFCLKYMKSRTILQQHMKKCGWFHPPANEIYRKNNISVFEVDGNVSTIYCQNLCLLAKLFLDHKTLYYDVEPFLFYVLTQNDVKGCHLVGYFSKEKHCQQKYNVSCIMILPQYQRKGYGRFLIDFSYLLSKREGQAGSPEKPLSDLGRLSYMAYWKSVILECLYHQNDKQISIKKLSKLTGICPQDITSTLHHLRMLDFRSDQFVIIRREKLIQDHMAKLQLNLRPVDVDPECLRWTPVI
Method: Enzymatic reactions of KAT6A and KAT6B were performed using Fluorescence Resonance Energy Transfer (TR-FRET) assay, which measures acetylation of a synthetic, biotinylated histone-H4 peptide by the KAT6A and KAT6B enzymes. Recombinant human KAT6A protein (497-780) were expressed in BL21 cell using an E. coli expression system. Recombinant human KAT6B protein (657-1069) was expressed in sf9 cell using a baculovirus expression system. […] Acetyl coenzyme A was purchased from Sigma-Aldrich (#A-2056).
as §1, with “The IC50s were calculated based on inhibition of enzyme activity in the presence of increasing concentrations of test compounds, and the results are shown in Table 6.” left out

[3] = test system: histone H3K23 acetylation in U-2 OS cells; assay: Histone H3 lysine 23 acetylation assay in U-2 OS cells (high content analysis); format: cell-based; conditions: Homo sapiens, U2OS, 24 hrs exposure, H3K23ac level
Method: Assay B: Histone H3 lysine 23 Acetylation Assay
Compounds were tested for their capacity to suppress the histone H3K23 acetylation in the following high content analysis assay.
The cell line U-2 OS (ATCC HTB-96) was seeded at a density of 2000 cells per well in black 384 well cell culture/imaging microplates in 45 μl McCoy's 5A medium with […]. After overnight incubation in 37° C., 5% CO2 incubator, cells were then treated with a 9-point dilution series of compounds and a blank control group with medium containing 0.1% DMSO.
Following a 24 hrs exposure to the compounds, the cells were fixed with 4% immunohistochemical fixative for 20 mins at room temperature, washed with DPBS with 2% fetal bovine serum, and permed with Perm Buffer III for 30 min on ice, washed with DPBS with 2% fetal bovine serum. Then the cells were blocked with Odyssey blocking buffer containing 0.1% Tween 20. 20 ul Anti-Histone H3 (acetyl K23) antibody (Abcam, ab177275) in odyssey blocking buffer containing 0.1% Tween20 was added and incubated overnight at 4° C. After incubation, the cells were washed for 3 times and a secondary antibody Anti-rabbit IgG (H+L), F(ab′)2 Fragment (Alexa Fluor® 647 Conjugate) (CST, 4414S) were added into cells for one hour. The cells were washed and 1 ug/ml DAPI (Thermo, 62248) were added for 10 min. Then cells were washed and read on the PerkinElmer Operetta CLS high content analysis system. The nuclei were identified by DAPI and H3K23ac level was calculated from the Alexa Fluor 647 intensity in the nuclei. Inhibition rate of H3K23ac was calculated as the mean intensity of cells per well relative to blank controls on the same plate.

Chain of Recombinant human KAT6B protein (657-1069) (Q8WYB5 657-1069): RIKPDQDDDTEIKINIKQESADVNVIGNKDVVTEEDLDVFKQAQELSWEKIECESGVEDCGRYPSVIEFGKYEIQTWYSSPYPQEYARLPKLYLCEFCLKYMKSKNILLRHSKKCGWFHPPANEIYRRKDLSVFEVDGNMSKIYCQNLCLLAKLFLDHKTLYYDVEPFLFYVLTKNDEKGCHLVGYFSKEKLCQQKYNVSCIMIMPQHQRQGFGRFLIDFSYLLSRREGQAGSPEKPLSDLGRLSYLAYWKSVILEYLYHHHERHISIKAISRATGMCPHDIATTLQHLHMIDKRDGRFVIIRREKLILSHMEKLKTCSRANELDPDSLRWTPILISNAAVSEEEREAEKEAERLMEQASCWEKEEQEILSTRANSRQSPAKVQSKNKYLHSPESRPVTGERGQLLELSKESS

| IC50 [1] | IC50 [2] | IC50 [3] | Structure (SMILES) |
| --- | --- | --- | --- |
| ≤ 5 nM | ≤ 5 nM | ≤ 10 nM | COc1ccc(C(C)(C)C)nc1S(=O)(=O)NC(=O)c1ccc(Cn2cccn2)c(C(F)F)c1 [Example C36, 4-((1H-pyrazol-1-yl)methyl)-N-((6-(tert-butyl)-3-methoxypyridin-2-yl)sulfonyl)-3-(difluoromethyl)benzamide] |
| ≤ 5 nM | ≤ 5 nM | ≤ 10 nM | COc1ccc(C2(C)CCC2)cc1S(=O)(=O)NC(=O)c1ccc(Cn2cccn2)c(OC)n1 [Example C76, 5-((1H-pyrazol-1-yl)methyl)-6-methoxy-N-((2-methoxy-5-(1-methylcyclobutyl)phenyl)sulfonyl) picolinamide] |
| ≤ 5 nM | ≤ 5 nM | ≤ 10 nM | COc1ccc2c(c1S(=O)(=O)NC(=O)c1ccc(Cn3cccn3)c(OC)n1)OCC(C)(C)C2 [Example C55, 5-((1H-pyrazol-1-yl)methyl)-6-methoxy-N-((7-methoxy-3,3-dimethylchroman-8-yl)sulfonyl)picolinamide] |
| ≤ 5 nM | ≤ 5 nM | ≤ 10 nM | COc1ccc(C(C)(C)C)cc1S(=O)(=O)NC(=O)c1cc(Br)c(Cn2cccn2)cc1F [Example C10, 4-((1H-pyrazol-1-yl)methyl)-5-bromo-N-((5-(tert-butyl)-2-methoxyphenyl)sulfonyl)-2-fluorobenzamide] |
| ≤ 5 nM | 5 to 50 nM | ≤ 10 nM | COc1ccc(C23COC(C2)C3)cc1S(=O)(=O)NC(=O)c1ccc(Cn2cccn2)c(OC)n1 [Example C77, 5-((1H-pyrazol-1-yl)methyl)-N-((5-(2-oxabicyclo[2.1.1]hexan-4-yl)-2-methoxyphenyl)sulfonyl)-6-methoxypicolinamide] |
| ≤ 5 nM | ≤ 5 nM | ≤ 10 nM | COc1cc(C(=O)NS(=O)(=O)c2nc(C(C)(C)C)ccc2OC)ccc1Cc1ccccn1 [Example C32, N-((6-(tert-butyl)-3-methoxypyridin-2-yl)sulfonyl)-3-methoxy-4-(pyridin-2-ylmethyl)benzamide] |
| ≤ 5 nM | ≤ 5 nM | ≤ 10 nM | COc1ccc(N2CC3CCC(C2)O3)cc1S(=O)(=O)NC(=O)c1ccc(Cn2cccn2)c(OC)n1 [Example C62, 5-((1H-pyrazol-1-yl)methyl)-N-((5-(8-oxa-3-azabicyclo[3.2.1]octan-3-yl)-2-methoxyphenyl)sulfonyl)-6-methoxy-picolinamide] |
| ≤ 5 nM | ≤ 5 nM | ≤ 10 nM | [2H]C([2H])([2H])Oc1ccc(C(C)(C)C)nc1S(=O)(=O)NC(=O)c1ccc(Cn2cccn2)c(OC)n1 [Example C66, 5-((1H-pyrazol-1-yl)methyl)-N-((6-(tert-butyl)-3-(methoxy-d3)pyridin-2-yl)sulfonyl)-6-methoxy-picolinamide] |
| ≤ 5 nM | ≤ 5 nM | ≤ 10 nM | COc1ccc2c(c1S(=O)(=O)NC(=O)c1ccc(Cn3cccn3)c(OC)n1)OCC21CCC1 [Example C60, 5-((1H-pyrazol-1-yl)methyl)-6-methoxy-N-((6-methoxy-2H-spiro[benzofuran-3,1′-cyclobutan]-7-yl)sulfonyl)picolinamide] |
| 5 to 50 nM | 5 to 50 nM | 10 to 100 nM | C#Cc1cc(C(=O)NS(=O)(=O)c2cc3c(cc2OC)CCC3)ccc1Cn1cccn1 [Example C9, 4-((1H-pyrazol-1-yl)methyl)-3-ethynyl-N-((6-methoxy-2,3-dihydro-1H-inden-5-yl)sulfonyl)benzamide] |
| ≤ 5 nM | ≤ 5 nM | ≤ 10 nM | C=Cc1cc(C(=O)NS(=O)(=O)c2c(OC)ccc3c2OCC3(C)C)ccc1Cn1cccn1 [Example C50, 4-((1H-pyrazol-1-yl)methyl)-N-((6-methoxy-3,3-dimethyl-2,3-dihydrobenzofuran-7-yl)sulfonyl)-3-vinylbenzamide] |
